Measured values as given in patent US20140050779A1, “[…]-2 INHIBITORS AND USES THEREOF” (SINGAPORE HEALTH SERVICES PTE. LTD., priority 2011, published 2014).

Key:
[1] = test system: mouse eyes treated with −15D spectacle lens; assay: spectacle lens-induced myopia in mice, axial length and refractive error; assay type: in vivo; conditions: lens with 0.1% drug; for axial length: vs lens treated eyes; for refractive error: infrared photorefractor
Experimental: Topical applications were administered to both eyes at the same time each day (approximately 9:00 AM) commencing on the 12th day (initiation of spectacle lens treatment). A compatible drug level was determined prior to the in vivo use in a tissue culture study with mouse scleral fibroblasts. […] This treatment schedule continued for four weeks starting on post-natal day 12 continued until post-natal day 42. All measurements were taken at post-natal day 42, the equivalent of 4 weeks of spectacle lens wear.
Each eye was refracted every week to measure the refractive error using automated infrared photorefraction as described in Barathi, V. A., Beuerman, R. W., Schaeffel, F., 2009a, “Effects of unilateral topical atropine on binocular pupil responses and eye growth in mice”, Vision Res 49, 383-387. By using Optical Low Coherence Interferometry (OLCI, AC Master, Carl-Zeiss), the axial length of the eye was measured in-vivo as described in Yin G C, Gentle A, McBrien N A, “Muscarinic antagonist control of myopia: a molecular search for the M1 receptor in chick”, Mol. Vis. 2004; 13(10):787-93 and Barathi, V. A., Boopathi, V. G., Yap, E. P., Beuerman, R. W., 2008, “Two models of experimental myopia in the mouse”, Vision Res 48, 904-916. […] Differences of refractive power and axial length between eyes were calculated. Independent t-tests were used to compare experimental and control eyes in wild type and TGM2-deleted or M1-M5 mutant mice.
Right eyes were experimental and left eyes served as contra-lateral control. In vivo axial length was measured at 2 weeks and 4 weeks after treatment. […] Automated infrared photorefractor was used to measure the refractive error measurements.

TG-2 = TG-2 colorimetric microassay (transamidase activity) in lysate of treated mouse scleral fibroblasts; assay type: cell-based; conditions: for transamidase activity of endogenous cellular TG-2: mouse scleral fibroblasts, 0.1, 1, 10 and 100 μM for 5 days, concentration-dependent
Experimental: All cells used in examples described herein were between passages 2-4. Passaged cells were plated at a concentration of 2×10^5/mL into 6 well plates containing DMEM with 10% FBS. […] Old media was removed from wells and 1 mL of drug was added with fresh full medium and incubated at 37° C. Fresh drugs were replaced daily consecutively for the next 5 days to avoid oxidation. The drugs/media was removed and wells were washed twice with 1×PBS. 200 μl of RIPA lysis buffer was added per well and incubated for 5 minutes and cells were scrapped into an eppendorf tube. The cells were stored at −20° C. until sonication. The cells were sonicated on ice thrice at 20% output power for 5 seconds each time and rested 1 minute in between each turn. Cell debris was spun down at 12000 rpm for 20 minutes. The supernatant was poured into a new eppendorf tube and cell concentrations were determined using the Dc Protein assay Kit (Bio-Rad, MA). Passaged cells were plated at a concentration of 1×10^5 into 6 well plates containing DMEM with 10% FBS. […] Freshly prepared muscarinic agents' at base line, 0.1, 1, 10 and 100 μM concentrations were added for 5 days (Table 2). The culture medium was removed and fresh medium containing the same muscarinic drug added every day to avoid drug changes such as atropine oxidation. Cell lysate was collected for relative quantitative (q) PCR and protein analysis at day 5.
This assay was designed to assess the cross-linking activity of TG-2 between two proteins. TG activity was measured with TG-2 colorimetric Microassay kit (TG-Covtest, Covalab, Cambridge, UK). 150-200 μg of total protein was used per well for the TG-2 assay. Transglutaminase standards (Sigma) were used as a positive control. EDTA was used to inhibit the enzyme activity as a negative control.
The approximate volume of reagents to use, the wavelengths to use to read absorbance, the incubation times were determined from a previous study that have carried out experiments with similar principles as described in Perez Alea M, Kitamura M, Martin G, Thomas V, Hitomi K, El Alaoui S., “Development of an isoenzyme-specific colorimetric assay for tissue transglutaminase 2 cross-linking activity”, Anal Biochem. 2009 Jun. 15; 389(2):150-6, Epub 2009 March 24. All reagents used and protein coated plates were part of the kit. Biotin cadaverine was reconstituted with 6 ml of deionized water and 90 μl was added into each well of the 96 well plate that comes coated with CBZ-GLN-GLY. The rest of the steps were followed as in the manufacturer's instructions and finally absorbance was read at 450 nm using a microplate reader (TECAN, Austria). All incubations were performed with gentle shaking on a laboratory orbital shaker.
The TG-2 colorimetric assay serves as a high throughput and quantitative assay to assess transamidase activity. […] In vivo studies with these drugs were also conducted to determine the effect on myopia development (see FIGS. 14 and 15).

Row | Structure (SMILES) | axial length ([1]; 2 weeks and 4 weeks) | refractive error [1] | TG-2 activity, strongest reduction (TG-2; mouse scleral fibroblasts, 0.1 μM, saturated at 1, 10 and 100 μM) | transamidase activity of endogenous cellular TG-2 (TG-2) | reduction in the mouse myopia progression, among all the drugs ([1]; 2 weeks and 4 weeks) | TG-2 activity, strongest reduction among the antagonists (TG-2; mouse scleral fibroblasts) | TG2 activity as compared to atropine (TG-2; mouse scleral fibroblasts, high concentration (100 μM))
1 | CN1[C@@H]2CC[C@H]1C[C@@H](OC(=O)C(CO)c1ccccc1)C2 (stereo partly shown) [atropine] | significantly reduced | shifted from myopic to hyperoic | most significantly reduced | reduced | – | – | –
2 | C[C@@H]1OC(=O)[C@H]2C[C@H]3CCCC[C@@H]3[C@@H](/C=C/[C@H]3CCC[C@H](C)N3C)[C@@H]12 [himbacine] | significantly reduced | shifted from myopic to hyperoic | – | reduced | most significant amount of reduction | most significantly reduced | most significantly reduced
